Laboratory results reported in patent US7906655B2, “Hepatitis C virus inhibitors” (Bristol-Myers Squibb Company, priority 2008, dated 2011).

What follows are compounds tested on HCV 1b genotype (assay: HCV Replicon assay (HCV-neo replicon cells, wild-type)). Conditions: HCV 1b genotype replicon; class symbols.
Assay type: cell-based
Protocol: An HCV Replicon assay was utilized in the present disclosure, and was prepared, conducted and validated as described in commonly owned PCT/US2006/022197 and in O'Boyle et. al. Antimicrob Agents Chemother. 2005 April; 49 (4):1346-53. Assay methods incorporating luciferase reporters have also been used as described (Apath.com).
HCV-neo replicon cells and replicon cells containing mutations in the NS5A region were used to test the currently described family of compounds. The compounds were determined to have more than 10-fold less inhibitory activity on cells containing mutations than wild-type cells. Thus, the compounds of the present disclosure can be effective in inhibiting the function of the HCV NS5A protein and are understood to be as effective in combinations as previously described in application PCT/US2006/022197 and commonly owned WO/O4014852. Further, the compounds of the present disclosure can be effective against the HCV 1b genotype. It should also be understood that the compounds of the present disclosure can inhibit multiple genotypes of HCV. […] In one embodiment, compounds of the present disclosure are inhibitory versus 1a, 1b, 2a, 2b, 3a, 4a, and 5a genotypes.

| Structure (SMILES) | EC50 [nM] |
| --- | --- |
| COC(=O)N[C@H](C(=O)N1CCC[C@H]1c1nc2cc(-c3cnc(-c4ccc5[nH]c([C@@H]6CCCN6C(=O)[C@@H](NC(=O)OC)C(C)C)nc5c4)o3)ccc2[nH]1)C(C)C [Example J19, methyl ((1S)-1-(((2S)-2-(5-(2-(2-((2S)-1-((2S)-2-((methoxy-carbonyl)amino)-3-methyl-butanoyl)-2-pyrrolidinyl)-1H-benzimidazol-5-yl)-1,3-oxazol-5-yl)-1H-benzimidazol-2-yl)-1-pyrrolidinyl)carbonyl)-2-methylpropyl) carbamate] | < 4.57 |

Same assay, conditions: Hepatitis C virus, HCV 1b genotype replicon; class symbols

| Structure (SMILES) | EC50 [nM] |
| --- | --- |
| CN(C)[C@@H](C(=O)N1CCC[C@H]1c1nc2cc(-c3cnc(-c4cccc5[nH]c([C@@H]6CCCN6C(=O)[C@@H](c6ccccc6)N(C)C)nc45)o3)ccc2[nH]1)c1ccccc1 [Example J11, (1R)-2-((2S)-2-(4-(5-(2-((2S)-1-((2R)-2-(dimethyl-amino)-2-phenylacetyl)-2-pyrrolidinyl)-1H-benzimidazol-5-yl)-1,3-oxazol-2-yl)-1H-benzimidazol-2-yl)-1-pyrrolidinyl)-N,N-dimethyl-2-oxo-1-phenyl-ethanamine] | < 4.57 |
| CC(=O)N[C@@H](C(=O)N1CCC[C@H]1c1nc2cc(-c3cnc(-c4cccc5[nH]c([C@@H]6CCCN6C(=O)[C@@H](c6ccccc6)N(C)C)nc45)o3)ccc2[nH]1)c1ccccc1 [Example J11.1, N-((1R)-2-((2S)-2-(5-(2-(2-((2S)-1-((2R)-2-(dimethyl-amino)-2-phenylacetyl)-2-pyrrolidinyl)-1H-benzimidazol-4-yl)-1,3-oxazol-5-yl)-1H-benzimidazol-2-yl)-1-pyrrolidinyl)-2-oxo-1-phenylethyl) acetamide] | < 4.57 |
| CC(=O)N[C@H](C(=O)N1CCC[C@H]1c1nc2cc(-c3cnc(-c4cccc5[nH]c([C@@H]6CCCN6C(=O)[C@@H](c6ccccc6)N(C)C)nc45)o3)ccc2[nH]1)c1ccccc1 [Example J11.2, N-((1S)-2-((2S)-2-(5-(2-(2-((2S)-1-((2R)-2-(dimethyl-amino)-2-phenylacetyl)-2-pyrrolidinyl)-1H-benzimidazol-4-yl)-1,3-oxazol-5-yl)-1H-benzimidazol-2-yl)-1-pyrrolidinyl)-2-oxo-1-phenylethyl) acetamide] | < 4.57 |
| CC(=O)N[C@@H](C(=O)N1CCC[C@H]1c1nc2cc(-c3cnc(-c4cccc5[nH]c([C@@H]6CCCN6C(=O)[C@H](NC(C)=O)c6ccccc6)nc45)o3)ccc2[nH]1)c1ccccc1 [Example J12, N-((1R)-2-((2S)-2-(4-(5-(2-((2S)-1-((2R)-2-acetamido-2-phenylacetyl)-2-pyrrolidinyl)-1H-benzimidazol-5-yl)-1,3-oxazol-2-yl)-1H-benzimidazol-2-yl)-1-pyrrolidinyl)-2-oxo-1-phenylethyl) acetamide] | < 4.57 |
| O=C(C(c1ccccc1)N1CCC(O)CC1)N1CCC[C@H]1c1nc2cc(-c3cnc(-c4cccc5[nH]c([C@@H]6CCCN6C(=O)C(c6ccccc6)N6CCC(O)CC6)nc45)o3)ccc2[nH]1 (stereo partly drawn) [Example J13, 1-(2-((2S)-2-(4-(5-(2-((2S)-1-((4-hydroxy-1-piperidinyl) (phenyl)acetyl)-2-pyrrolidinyl)-1H-benzimidazol-5-yl)-1,3-oxazol-2-yl)-1H-benzimidazol-2-yl)-1-pyrrolidinyl)-2-oxo-1-phenylethyl)-4-piperidinol] | < 4.57 |
| CN1CCN([C@@H](C(=O)N2CCC[C@H]2c2nc3cc(-c4cnc(-c5cccc6[nH]c([C@@H]7CCCN7C(=O)[C@@H](c7ccccc7)N7CCN(C)CC7)nc56)o4)ccc3[nH]2)c2ccccc2)CC1 [Example J14, 2-((2S)-1-((2R)-2-(4-methyl-1-piperazinyl)-2-phenylacetyl)-2-pyrrolidinyl)-4-(5-(2-((2S)-1-((2R)-2-(4-methyl-1-piperazinyl)-2-phenylacetyl)-2-pyrrolidinyl)-1H-benzimidazol-5-yl)-1,3-oxazol-2-yl)-1H-benzimidazole] | < 4.57 |
| CN1CCN(C(C(=O)N2CCC[C@H]2c2nc3cc(-c4cnc(-c5cccc6[nH]c([C@@H]7CCCN7C(=O)C(c7ccccc7)N7CCN(C)CC7)nc56)o4)ccc3[nH]2)c2ccccc2)CC1 (stereo partly drawn) [Example J14.1, 2-((2S)-1-((4-methyl-1-piperazinyl) (phenyl)acetyl)-2-pyrrolidinyl)-4-(5-(2-((2S)-1-((4-methyl-1-piperazinyl) (phenyl)acetyl)-2-pyrrolidinyl)-1H-benzimidazol-5-yl)-1,3-oxazol-2-yl)-1H-benzimidazole] | 4.57 to 99 |
| O=C(Cc1ccccc1)N1CCC[C@H]1c1nc2cc(-c3cnc(-c4ccc5nc([C@@H]6CCCN6C(=O)Cc6ccccc6)[nH]c5c4)o3)ccc2[nH]1 [Example J16] | 4.57 to 99 |
| O=C([C@H](O)c1ccccc1)N1CCC[C@H]1c1nc2cc(-c3cnc(-c4ccc5nc([C@@H]6CCCN6C(=O)[C@H](O)c6ccccc6)[nH]c5c4)o3)ccc2[nH]1 [Example J17, (1R)-2-((2S)-2-(5-(2-(2-((2S)-1-((2R)-2-hydroxy-2-phenylacetyl)-2-pyrrolidinyl)-1H-benzimidazol-6-yl)-1,3-oxazol-5-yl)-1H-benzimidazol-2-yl)-1-pyrrolidinyl)-2-oxo-1-phenylethanol] | < 4.57 |
| C[C@@](O)(C(=O)N1CCC[C@H]1c1nc2cc(-c3cnc(-c4ccc5nc([C@@H]6CCCN6C(=O)[C@@](C)(O)c6ccccc6)[nH]c5c4)o3)ccc2[nH]1)c1ccccc1 [Example J18, (2S)-1-((2S)-2-(5-(2-(2-((2S)-1-((2S)-2-hydroxy-2-phenyl-propanoyl)-2-pyrrolidinyl)-1H-benzimidazol-6-yl)-1,3-oxazol-5-yl)-1H-benzimidazol-2-yl)-1-pyrrolidinyl)-1-oxo-2-phenyl-2-propanol] | < 4.57 |
| CN(C)[C@@H](C(=O)N1CCC[C@H]1c1nc2cc(-c3cnc(-c4ccc5nc([C@@H]6CCCN6C(=O)[C@@H](c6ccccc6)N(C)C)[nH]c5c4)o3)ccc2[nH]1)c1ccccc1 [Example J20, (1R)-2-((2S)-2-(5-(2-(2-((2S)-1-((2R)-2-(dimethyl-amino)-2-phenylacetyl)-2-pyrrolidinyl)-1H-benzimidazol-6-yl)-1,3-oxazol-5-yl)-1H-benzimidazol-2-yl)-1-pyrrolidinyl)-N,N-dimethyl-2-oxo-1-phenyl-ethanamine] | < 4.57 |
| CC(=O)N[C@@H](C(=O)N1CCC[C@H]1c1nc2cc(-c3cnc(-c4ccc5nc([C@@H]6CCCN6C(=O)[C@H](NC(C)=O)c6ccccc6)[nH]c5c4)o3)ccc2[nH]1)c1ccccc1 [Example J21, N-((1R)-2-((2S)-2-(5-(2-(2-((2S)-1-((2R)-2-acetamido-2-phenylacetyl)-2-pyrrolidinyl)-1H-benzimidazol-6-yl)-1,3-oxazol-5-yl)-1H-benzimidazol-2-yl)-1-pyrrolidinyl)-2-oxo-1-phenylethyl) acetamide] | < 4.57 |
| COc1cccc2c(C(=O)N3CCC[C@H]3c3nc4cc(-c5cnc(-c6ccc7nc([C@@H]8CCCN8C(=O)c8nc(Cl)cc9c(OC)cccc89)[nH]c7c6)o5)ccc4[nH]3)nc(Cl)cc12 [Example J22, 3-chloro-1-(((2S)-2-(5-(2-(2-((2S)-1-((3-chloro-5-methoxy-1-isoquinolinyl)carbonyl)-2-pyrrolidinyl)-1H-benzimidazol-6-yl)-1,3-oxazol-5-yl)-1H-benzimidazol-2-yl)-1-pyrrolidinyl)carbonyl)-5-methoxy-isoquinoline] | 1000 to 10000 |
| CN(C)[C@@H](C(=O)N1CCC[C@H]1c1nc2cc(-c3cnc(-c4ccc5nc([C@@H]6C[C@@H]7C[C@@H]7N6C(=O)[C@@H](c6ccccc6)N(C)C)[nH]c5c4)o3)ccc2[nH]1)c1ccccc1 [Example J23, (1R)-2-((2S)-2-(5-(2-(2-((1S,3S,5S)-2-((2R)-2-(dimethyl-amino)-2-phenylacetyl)-2-azabicyclo[3. 1.0]hex-3-yl)-1H-benzimidazol-5-yl)-1,3-oxazol-5-yl)-1H-benzimidazol-2-yl)-1-pyrrolidinyl)-N,N-dimethyl-2-oxo-1-phenyl-ethanamine] | < 4.57 |
| CC(=O)N[C@@H](C(=O)N1CCC[C@H]1c1nc2cc(-c3cnc(-c4ccc5nc([C@@H]6C[C@@H]7C[C@@H]7N6C(=O)[C@H](NC(C)=O)c6ccccc6)[nH]c5c4)o3)ccc2[nH]1)c1ccccc1 [Example J24, N-((1R)-2-((2S)-2-(5-(2-(2-((1S,3S,5S)-2-((2R)-2-acetamido-2-phenylacetyl)-2-azabicyclo[3. 1.0]hex-3-yl)-1H-benzimidazol-5-yl)-1,3-oxazol-5-yl)-1H-benzimidazol-2-yl)-1-pyrrolidinyl)-2-oxo-1-phenylethyl) acetamide] | < 4.57 |

Same assay, conditions: Hepatitis C virus, HCV 1b genotype replicon; numeric values

| Structure (SMILES) | EC50 [nM] |
| --- | --- |
| COC(=O)N[C@H](C(=O)N1CCC[C@H]1c1nc2cc(-c3cnc(-c4cccc5[nH]c([C@@H]6CCCN6C(=O)[C@@H](NC(=O)OC)C(C)C)nc45)o3)ccc2[nH]1)C(C)C [Example J10, methyl ((1S)-1-(((2S)-2-(4-(5-(2-((2S)-1-((2S)-2-(methoxy-carbonyl)amino)-3-methyl-butanoyl)-2-pyrrolidinyl)-1H-benzimidazol-5-yl)-1,3-oxazol-2-yl)-1H-benzimidazol-2-yl)-1-pyrrolidinyl)carbonyl)-2-methylpropyl) carbamate] | 0.007 |
| COc1cccc2c(C(=O)N3CCC[C@H]3c3nc4cc(-c5cnc(-c6cccc7[nH]c([C@@H]8CCCN8C(=O)c8nc(Cl)cc9c(OC)cccc89)nc67)o5)ccc4[nH]3)nc(Cl)cc12 [Example J15, 3-chloro-1-(((2S)-2-(4-(5-(2-((2S)-1-((3-chloro-5-methoxy-1-isoquinolinyl)carbonyl)-2-pyrrolidinyl)-1H-benzimidazol-5-yl)-1,3-oxazol-2-yl)-1H-benzimidazol-2-yl)-1-pyrrolidinyl)carbonyl)-5-methoxy-isoquinoline] | > 10000 |
